Where two headings read alike, the source gives them in different places. Marks after values point to notes of the source that are not given here.
Experiments:
platelets [1] = conditions: three dosages
newborn rat thymocytes = conditions: With A
platelets [2] = test system: platelets
THP-1 cells [3] = test system: THP-1 cells
From the text: We proceeded to perform some related to the proliferative stimulation of the peptide in presence of other divalent cations such as magnesium, copper, and manganese.

human leukocytes = conditions: for Phagocytosis: peptide 10^-10M + zinc 10^-9M
From the text: In order to test a different effect of the proliferation, we decided to investigate the effect of peptide+zinc versus peptide+zinc+DTPA on human leukocytes phagocytosis.

[4] = test system: stress model induced in mice; conditions: for Corticosterone / IL-1: Table 22
THP-1 cells [5] = conditions: IMMP 10^−10M, no cortisone
[6] = test system: rats with acute hepatitis induced with CCI4;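 note: endpoints determined in blood and liver tissue collected when the rats were sacrificed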
[7] = test system: rats with rheumatoid arthritis
From the text: This produces that in the third week appears edema of the cephalic and caudal extremities, which can be measured with a vernier. Inflammation is due to the presence of the own autoimmune response against […] of the rat.

thymocytes = test system: thymocytes
Protocol: For that, we made organ culture in agarose gels and a filter with pores of 5 micron to prevent migration of the thymocytes. The Apoptosis was quantified with 7AAD and it was evaluated by flow cytometry.

[8] = test system: antibodies vs. LR.4 cells
Protocol: This was performed by flow cytometry. LR.4 cells were washed and incubated in serum dilutions obtained from mice, using as second antibody an antibody vs. mouse conjugated to fluoresce.

[9] = STRESS + IMMP, 10 ng/dose i.p., Table 21
[10] = Acute Hepatitis + IMMP, time of CCI4 24
[11] = Acute Hepatitis + IMMP, time of CCI4 48
[12] = Acute Hepatitis + IMMP, time of CCI4 72

Substance: Peptide LEDGPKFL + Zinc [IMMP]
- Reduction of tumor growth at long term (lymphoma LR.4; 10 doses for two weeks, from the fourth week): about 50%
- Body weight (control percent) (lymphoma LR.4; IMMP alone, no tumor, week 0): 100 ± 3%
- Body weight (control percent) (lymphoma LR.4; IMMP alone, no tumor, week 8): 101 ± 3%
- Body weight (control percent) (lymphoma LR.4; IMMP alone, no tumor, week 12): 99 ± 4%
- Body weight (control percent) (lymphoma LR.4; IMMP alone, no tumor, week 16): 101 ± 4%
- Body weight (control percent) (lymphoma LR.4; IMMP alone, no tumor, week 20): 102 ± 3%
- Body weight (control percent) (lymphoma LR.4; IMMP alone, no tumor, week 24): 100 ± 3%
- Body weight (control percent) (lymphoma LR.4; IMMP alone, no tumor, week 28): 100 ± 2%
- Body weight (control percent) (lymphoma LR.4; IMMP alone, no tumor, week 32): 100 ± 5%
- Body weight (control percent) (lymphoma LR.4; IMMP alone, no tumor, week ±4): 102 ± 4%
- Body weight (control percent) (lymphoma LR.4; LR.4 + IMMP, week 0, 200 ng/Kg i.p., ten doses): 100 ± 2%
- Body weight (control percent) (lymphoma LR.4; LR.4 + IMMP, week 8): 106 ± 3 %
- Body weight (control percent) (lymphoma LR.4; LR.4 + IMMP, week 12): 118 ± 7 %
- Body weight (control percent) (lymphoma LR.4; LR.4 + IMMP, week 16): 120 ± 9 %
- Body weight (control percent) (lymphoma LR.4; LR.4 + IMMP, week 20): 119 ± 9 %
- Body weight (control percent) (lymphoma LR.4; LR.4 + IMMP, week 24): 120 ± 8 %
- Body weight (control percent) (lymphoma LR.4; LR.4 + IMMP, week 28): 119 ± 11 %
- Body weight (control percent) (lymphoma LR.4; LR.4 + IMMP, week 32): 120 ± 13 %
- Body weight (control percent) (lymphoma LR.4; LR.4 + IMMP, week ±4): 115 ± 5 %
- Body weight relative to control (lymphoma LR.4; tumor + IMMP, thirty day (untreated 25% higher)): almost equal to that of the control
- Platelets (platelets [1]; CC14 + IMMP, pretreatment 50 ng/kg each third day): 886 + 110^# 10^3/μL
- Platelets (platelets [1]; IMMP alone, no CCI4, 50 ng/kg each third day): 1560 + 248* 10^3/μL
- Cells Percent CD4 (newborn rat thymocytes; [M] 10^−6): 15.1 ± 2.5%
- Cells Percent CD8 (newborn rat thymocytes; [M] 10^−6): 5.3 ± 1.5%
- Cells Percent DN (newborn rat thymocytes; [M] 10^−6): 6.6 ± 1.7%
- Cells Percent DP (newborn rat thymocytes; [M] 10^−6): 72.2 ± 1.5%
- Cells Percent CD4 (newborn rat thymocytes; [M] 10^−7): 14.2 ± 3.7%
- Cells Percent CD8 (newborn rat thymocytes; [M] 10^−7): 6.0 ± 2.2 %
- Cells Percent DN (newborn rat thymocytes; [M] 10^−7): 3.7 ± 0.2%
- Cells Percent DP (newborn rat thymocytes; [M] 10^−7): 73.3 ± 2.6%
- Cells Percent CD4 (newborn rat thymocytes; [M] 10^−8): 13.9 ± 2.6 %
- Cells Percent CD8 (newborn rat thymocytes; [M] 10^−8): 6.1 ± 0.2 %
- Cells Percent DN (newborn rat thymocytes; [M] 10^−8): 7.1 ± 2.8%
- Cells Percent DP (newborn rat thymocytes; [M] 10^−8): 74.8 ± 0.7 %
- Cells Percent CD4 (newborn rat thymocytes; [M] 10^−9): 17.7 ± 1.9 %
- Cells Percent CD8 (newborn rat thymocytes; [M] 10^−9): 4.8 ± 1.9%
- Cells Percent DN (newborn rat thymocytes; [M] 10^−9): 7.0 ± 1.1 %
- Cells Percent DP (newborn rat thymocytes; [M] 10^−9): 70.5 ± 1.2 %
- Cells Percent CD4 (newborn rat thymocytes; [M] 10^−10): 16.7 ± 1.0 %
- Cells Percent CD8 (newborn rat thymocytes; [M] 10^−10): 4.7 ± 2.2%
- Cells Percent DN (newborn rat thymocytes; [M] 10^−10): 5.1 ± 1.9%
- Cells Percent DP (newborn rat thymocytes; [M] 10^−10): 73.3 ± 3.0%
- Cells Percent CD4 (newborn rat thymocytes; [M] 10^−11): 15.4 ± 0.8 %
- Cells Percent CD8 (newborn rat thymocytes; [M] 10^−11): 6.0 ± 1.7%
- Cells Percent DN (newborn rat thymocytes; [M] 10^−11): 5.1 ± 2.0%
- Cells Percent DP (newborn rat thymocytes; [M] 10^−11): 74.8 ± 5.4%
- Cells Percent CD4 (newborn rat thymocytes; [M] 10^−12): 16.7 ± 0.9 %
- Cells Percent CD8 (newborn rat thymocytes; [M] 10^−12): 6.0 ± 0.5 %
- Cells Percent DN (newborn rat thymocytes; [M] 10^−12): 6.4 ± 0.4%
- Cells Percent DP (newborn rat thymocytes; [M] 10^−12): 71.8 ± 3.5 %
- Increase in blood platelets (platelets [2]; normal animals): ~100%
- Platelets (platelets [2]; normal rats): 1560 ± 248* 10^3/μL
- Concentration at which plateau / maximum response of stimulation is reached (THP-1 cells [3]): 10-10 M
- Increase of potency by adding the ion (times) (THP-1 cells [3]): ~500 times
- Increase of the potency of the peptide by zinc (times) (THP-1 cells [3]): more than 200 times
- EC50 (THP-1 cells [3]; read-out: Effective concentration 50): 0.01 nM
- Phagocytosis (human leukocytes; 24 h): 56 ± 2 arbitrary fluorescence intensity units
- Phagocytosis (human leukocytes; 48 h): 185 ± 18 arbitrary fluorescence intensity units
- Increase of phagocytosis (human leukocytes; 48 hours): about four times
- Corticosterone ([4]; IMMP alone): 33.5 ± 2.1 ng/dL
- IL-1 ([4]; IMMP alone): 6.9 ± 0.8 ng/dL
- WEIGHT ([4]; IMMP alone, Table 22 (title: C57BL/6J mice with lymphoma LR.4)): 13.8 ± 1.2 g
- IL-1 serum level [4, 9]: 6.9 ± 0.8 ng/dL
- WEIGHT [4, 9]: 13.8 ± 1.2 g
- corticosterone serum level [4, 9]: 33.5 ± 2.1 ng/dL
- Corticosterone ([4]; STRESS + IMMP): 43.1 ± 3.8 ng/dL
- IL-1 ([4]; STRESS + IMMP): 18.1 ± 2.0 ng/dL
- WEIGHT ([4]; STRESS + IMMP, Table 22 (title: C57BL/6J mice with lymphoma LR.4)): 13.1 ± 0.9 g
- Body weight loss ([4]; stress + IMMP (36% without)): 11%
- Increase in corticosteroid production induced by stress ([4]; stress + IMMP (70% without)): 38%
- Increase of plasma IL-1 over control ([4]; stress + IMMP (three times without)): increased only once
- Cell Viability (% with respect to the control) (THP-1 cells [5]): 180 ± 5%
- Serum ALT [6, 10]: 351.0 ± 10.4 UI/L
- Serum AST [6, 10]: 493.6 ± 30.3 UI/L
- Serum PA (alkaline phosphatase) [6, 10]: 1139.0 ± 86.8 UI/L
- Serum ALT [6, 11]: 275.54 ± 22.3 UI/L
- Serum AST [6, 11]: 377.0 ± 17.7 UI/L
- Serum PA (alkaline phosphatase) [6, 11]: 1287.5 ± 83.6 UI/L
- Serum ALT [6, 12]: 233.0 ± 20.8 UI/L
- Serum AST [6, 12]: 230.2 ± 15.4 UI/L
- Serum PA (alkaline phosphatase) [6, 12]: 1306.2 ± 90.7 UI/L
- Hepatic glutathione ([6]; CCI4 + IMMP, 24 hours): 13.3 ± 3.3 ng/mg of tissue
- Relative weight of the liver (organ weight / weight of the animal) ([6]; CCI4 + IMMP, 24 hours after CCI4): 8.0 ± 0.9 ^ relative units
- Hepatic glutathione ([6]; CCI4 + IMMP, 48 hours): 14.2 ± 2.8 ng/mg of tissue
- Relative weight of the liver (organ weight / weight of the animal) ([6]; CCI4 + IMMP, 48 hours after CCI4): 6.8 ± 0.7 relative units
- Hepatic glutathione ([6]; CCI4 + IMMP, 72 hours): 3.7 ± 1.6 ng/mg of tissue
- Relative weight of the liver (organ weight / weight of the animal) ([6]; CCI4 + IMMP, 72 hours after CCI4): 5.7 ± 0.5 relative units
- Relative weight of the liver (organ weight / weight of the animal) ([6]; IMMP alone, no CCI4, 24 hours, 100 ng/kg i.p. x3): 5.4 ± 0.5 relative units
- Relative weight of the liver (organ weight / weight of the animal) ([6]; IMMP alone, no CCI4, 48 hours, 100 ng/kg i.p. x3): 5.0 ± 0.4 relative units
- Relative weight of the liver (organ weight / weight of the animal) ([6]; IMMP alone, no CCI4, 72 hours, 100 ng/kg i.p. x3): 4.9 ± 0.2 relative units
- Hepatic glutathione ([6]; IMMP alone, 24 hours): 3.1 ± 1.0 ng/mg of tissue
- Hepatic glutathione ([6]; IMMP alone, 48 hours): 3.5 ± 0.3 ng/mg of tissue
- Hepatic glutathione ([6]; IMMP alone, 72 hours): 5.1 ± 0.6 ng/mg of tissue
- Serum ALT ([6]; IMMP alone, time 24): 64.0 ± 22.4 UI/L
- Serum AST ([6]; IMMP alone, time 24): 72.4 ± 4.1 UI/L
- Serum PA (alkaline phosphatase) ([6]; IMMP alone, time 24): 525.0 ± 160 UI/L
- Serum ALT ([6]; IMMP alone, time 48): 73.1 ± 6.1 UI/L
- Serum AST ([6]; IMMP alone, time 48): 72.5 ± 3.9 UI/L
- Serum PA (alkaline phosphatase) ([6]; IMMP alone, time 48): 804.5 ± 39.5 UI/L
- Serum ALT ([6]; IMMP alone, time 72): 71.4 ± 8.4 UI/L
- Serum AST ([6]; IMMP alone, time 72): 71.6 ± 6.9 UI/L
- Serum PA (alkaline phosphatase) ([6]; IMMP alone, time 72): 604.0 ± 26.9 UI/L
- Number of rats showing Inflammation 0% ([7]; AR + treatment): 3
- Number of rats showing Inflammation 50% ([7]; AR + treatment): 3
- Number of rats showing Inflammation 100% of palmar and plantar pad ([7]; AR + treatment): 6
- Number of rats showing Inflammation 0% ([7]; IMMP alone, no arthritis): 0
- Number of rats showing Inflammation 50% ([7]; IMMP alone, no arthritis): 0
- Number of rats showing Inflammation 100% of palmar and plantar pad ([7]; IMMP alone, no arthritis): 0
- Animals with inflammation reduced at 50% ([7]; rat, in vivo): 25%
- Animals with inflammation reduced at 100% ([7]; rat, in vivo): 25%
- Thymocytes in apoptosis (%) (thymocytes; [IMMP] 10^−8): 1.6 ± 0.8 %
- Thymocytes in apoptosis (%) (thymocytes; [IMMP] 10^−9): 1.7 ± 0.7 %
- Thymocytes in apoptosis (%) (thymocytes; [IMMP] 10^−10): 1.5 ± 0.09 %
- Thymocytes in apoptosis (%) (thymocytes; [IMMP] 10^−11): 2.5 ± 0.91%
- % of LR.4 cells stained with the serum antibody ([8]; IMMP alone, no tumor, serum dilution 0): 0%
- % of LR.4 cells stained with the serum antibody ([8]; IMMP alone, no tumor, serum dilution 1:2): 0%
- % of LR.4 cells stained with the serum antibody ([8]; IMMP alone, no tumor, serum dilution 1:4): 0%
- % of LR.4 cells stained with the serum antibody ([8]; IMMP alone, no tumor, serum dilution 1:8): 0%
- % of LR.4 cells stained with the serum antibody ([8]; IMMP alone, no tumor, serum dilution 1:16): 0%
- % of LR.4 cells stained with the serum antibody ([8]; IMMP alone, no tumor, serum dilution 1:32): 0%
- % of LR.4 cells stained with the serum antibody ([8]; IMMP alone, no tumor, serum dilution 1:64): 0%
- % of LR.4 cells stained with the serum antibody ([8]; LR.4 + IMMP, serum dilution 0): 100%
- % of LR.4 cells stained with the serum antibody ([8]; LR.4 + IMMP, serum dilution 1:2): 100%
- % of LR.4 cells stained with the serum antibody ([8]; LR.4 + IMMP, serum dilution 1:4): 100%
- % of LR.4 cells stained with the serum antibody ([8]; LR.4 + IMMP, serum dilution 1:8): 100%
- % of LR.4 cells stained with the serum antibody ([8]; LR.4 + IMMP, serum dilution 1:16): 83%
- % of LR.4 cells stained with the serum antibody ([8]; LR.4 + IMMP, serum dilution 1:32): 40%
- % of LR.4 cells stained with the serum antibody ([8]; LR.4 + IMMP, serum dilution 1:64): 15%
- Antibodies vs tumor relative to untreated group ([8]; mouse, in vivo): four times more antibodies

— patent US20150132328A1 (priority 2011, published 2015)
